# Test results reported in publication PMC4546552 (ACS chemical biology, 2015).
# Where two headings read alike, the source gives them in different places.
# Experiments:
# rat NAAA (r-NAAA) = target: T1, rat NAAA (r-NAAA) (Rattus norvegicus, UniProt Q5KTC7); conditions: cited from earlier work
# T1 sequence (Q5KTC7 131-362 limits assumed): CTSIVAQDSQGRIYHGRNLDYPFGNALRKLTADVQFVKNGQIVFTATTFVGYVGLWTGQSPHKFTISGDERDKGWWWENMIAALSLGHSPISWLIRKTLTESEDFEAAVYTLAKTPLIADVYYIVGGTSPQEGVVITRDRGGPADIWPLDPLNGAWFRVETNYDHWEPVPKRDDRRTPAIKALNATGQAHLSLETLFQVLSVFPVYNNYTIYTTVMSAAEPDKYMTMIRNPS
# T1 sequence (Q5KTC7 34-130 limits assumed): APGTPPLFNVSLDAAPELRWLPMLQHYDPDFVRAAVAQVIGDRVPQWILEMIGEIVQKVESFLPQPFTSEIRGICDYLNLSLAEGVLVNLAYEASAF
# human NAAA (h-NAAA) = target: T2, human NAAA (h-NAAA) (Homo sapiens, UniProt Q02083); conditions: read-out: IC50 for human NAAA (h-NAAA); cited from earlier work
# T2 sequence (Q02083 29-359): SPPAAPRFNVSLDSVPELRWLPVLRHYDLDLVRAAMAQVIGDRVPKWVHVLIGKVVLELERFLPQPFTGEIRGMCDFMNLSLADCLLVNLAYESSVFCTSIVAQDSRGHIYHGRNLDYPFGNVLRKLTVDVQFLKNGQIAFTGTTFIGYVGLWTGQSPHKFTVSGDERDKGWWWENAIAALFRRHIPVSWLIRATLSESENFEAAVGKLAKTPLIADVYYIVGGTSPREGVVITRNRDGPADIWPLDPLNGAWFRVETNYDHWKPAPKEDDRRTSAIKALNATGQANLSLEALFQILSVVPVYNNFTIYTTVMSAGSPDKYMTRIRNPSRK
# [1] = cited from earlier work
# rodent models = conditions: cited from earlier work
# [2] = Stability in rat liver microsomes; assay type: in vitro ADME
# [3] = Stability in mouse liver microsomes; assay type: in vitro ADME
# rat FAAH = target: T3, rat FAAH (Rattus norvegicus, UniProt P97612); assay: Rat FAAH inhibition; assay type: biochemical
# T3 sequence (P97612 1-579): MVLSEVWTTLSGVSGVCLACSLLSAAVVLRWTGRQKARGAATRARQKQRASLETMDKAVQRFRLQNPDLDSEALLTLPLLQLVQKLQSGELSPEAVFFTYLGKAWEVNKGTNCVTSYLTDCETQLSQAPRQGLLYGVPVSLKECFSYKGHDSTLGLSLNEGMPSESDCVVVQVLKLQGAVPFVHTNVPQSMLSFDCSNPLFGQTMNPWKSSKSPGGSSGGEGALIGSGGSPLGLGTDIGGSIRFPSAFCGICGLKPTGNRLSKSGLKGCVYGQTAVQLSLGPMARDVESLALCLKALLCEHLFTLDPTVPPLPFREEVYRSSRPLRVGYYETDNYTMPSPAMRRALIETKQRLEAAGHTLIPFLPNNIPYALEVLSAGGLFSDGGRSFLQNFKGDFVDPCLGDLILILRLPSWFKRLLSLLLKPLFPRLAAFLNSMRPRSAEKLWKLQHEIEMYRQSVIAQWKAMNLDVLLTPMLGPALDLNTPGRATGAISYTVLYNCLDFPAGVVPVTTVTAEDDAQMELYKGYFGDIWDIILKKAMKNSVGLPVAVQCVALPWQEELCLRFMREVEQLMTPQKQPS
# [4] = test system: panel of 28 biologically relevant targets comprising lipid-metabolizing and inflammation-related enzymes; assay: CEREP selectivity panel, enzymes; assay type: biochemical; conditions: 10 μM
# [5] = test system: 79 commonly targeted ion channels, membrane transporters and receptors; assay: CEREP selectivity panel, channels, transporters, receptors; assay type: binding; conditions: 10 μM
# [6] = Pharmacokinetic analyses in mice, intravenous; assay type: in vivo; conditions: mouse, plasma, 3 mg/kg
# r-NAAA = target: T4, r-NAAA (Rattus norvegicus, UniProt Q5KTC7); assay: NAAA acylation in r-NAAA-overexpressing HEK-293 cells; assay type: cell-based; conditions: HEK-293 cells overexpressing r-NAAA, 10 μM, 1 h
# T4 sequence (Q5KTC7 131-362 limits assumed): T1 sequence (Q5KTC7 131-362 limits assumed)
# T4 sequence (Q5KTC7 34-130 limits assumed): T1 sequence (Q5KTC7 34-130 limits assumed)
# NAAA [7] = target: T5, NAAA (Rattus norvegicus, UniProt Q5KTC7); assay: In vivo NAAA acylation in rat lungs; conditions: rats, intravenous, 10 mg kg^−1
# T5 sequence (Q5KTC7 131-362 limits assumed): T1 sequence (Q5KTC7 131-362 limits assumed)
# T5 sequence (Q5KTC7 34-130 limits assumed): T1 sequence (Q5KTC7 34-130 limits assumed)
# NAAA [8] = target: T6, NAAA (Mus musculus, UniProt Q9D7V9); assay: Ex vivo mouse NAAA activity after dosing; assay type: in vivo; conditions: mice
# T6 sequence (Q9D7V9 34-362): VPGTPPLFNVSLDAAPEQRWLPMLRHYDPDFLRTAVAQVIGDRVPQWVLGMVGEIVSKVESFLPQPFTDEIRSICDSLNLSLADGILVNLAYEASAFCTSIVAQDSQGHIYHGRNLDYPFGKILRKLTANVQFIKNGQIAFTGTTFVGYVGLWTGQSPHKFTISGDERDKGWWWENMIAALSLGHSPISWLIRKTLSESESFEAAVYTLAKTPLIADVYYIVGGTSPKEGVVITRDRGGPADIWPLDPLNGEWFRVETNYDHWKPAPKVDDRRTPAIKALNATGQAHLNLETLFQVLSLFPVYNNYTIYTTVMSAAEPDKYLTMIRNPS
# PEA and OEA levels = PEA and OEA levels in mouse lungs; assay type: in vivo; conditions: 30 mg kg^−1 oral
# [9] = test system: carrageenan-induced inflammation; assay: Carrageenan-induced inflammation in mice; assay type: in vivo, mouse
# [10] = test system: LPS-activated human macrophages; assay: LPS-activated human monocyte-derived macrophages; assay type: cell-based
smiles,measurement,setting,value
"O=C(CCc1ccccc1)N[C@H]1COC1=O [Compound 3, N-[(3S)-2-oxo-3-oxetanyl]-3-phenylpropanamide]",IC50,rat NAAA (r-NAAA); read-out: IC50 for rat NAAA (r-NAAA),~420 nM
C[C@@H]1OC(=O)[C@@H]1NC(=O)OCCCCCc1ccccc1 [Compound 4],IC50,rat NAAA (r-NAAA); read-out: IC50 for r-NAAA,~50 nM
same,IC50,human NAAA (h-NAAA),~7 nM
same,t1/2 in plasma,[1],< 1 min
same,analgesic properties in rodent models,rodent models,marked analgesic properties
"O=C(N[C@H]1CNC1=O)OCCCCC1CCCCC1 [Compound 6, 4-Cyclohexylbutyl-N-[(S)-2-oxoazetidin-3-yl]carbamate]",half-life,[2],< 5 min
same,half-life,[3],< 5 min
same,IC50,rat FAAH,> 100000 nM
same,interaction with panel of 28 enzymes,[4],did not interact
same,"effect on 79 ion channels, membrane transporters and receptors",[5],no significant effect
same,Cmax,[6],1610 ng/mL
same,Vd,[6],3.1 L/kg
same,clearance,[6],139 mL/min/kg
same,half-life,[6],~15 min
same,covalent adduct with N-terminal cysteine (Cys131) of NAAA,r-NAAA,covalent product
same,formation of covalent NAAA adduct in lungs,NAAA [7],rapid formation of covalent adduct
same,inhibition of NAAA activity in various organs,"NAAA [8]; intraperitoneal 3–30 mg kg^−1, 2 h",substantial inhibition of NAAA activity
same,inhibition of NAAA activity ex vivo,"NAAA [8]; oral 30 mg kg^−1, 2 h",substantial inhibition of NAAA activity
same,OEA levels in lungs,PEA and OEA levels; carrageenan-challenged mice,markedly increased
same,PEA levels in lungs,PEA and OEA levels; carrageenan-challenged mice,markedly increased
same,OEA levels in lungs,PEA and OEA levels; naïve mice,no effect
same,PEA levels in lungs,PEA and OEA levels; naïve mice,no effect
same,anti-inflammatory effects under antagonism of CB1 or CB2 receptors,[9]; AM251 or AM630 1 mg kg^−1 i.p. 30 min before 6,did not prevent the anti-inflammatory effects
same,carrageenan-induced TNF-α levels in pleural exudate,"[9]; mice, 1–30 mg kg^−1, oral",prevented both responses in a dose-dependent manner
same,carrageenan-induced lung tissue myeloperoxidase (MPO) activity,"[9]; mice, 1–30 mg kg^−1, oral",prevented both responses in a dose-dependent manner
same,LPS-induced expression of iNOS,"[10]; CD68+ human macrophages, LPS 100 ng mL^−1, flow cytometry",significant concentration-dependent inhibition
same,LPS-induced release of TNF-α,"[10]; CD68+ human macrophages, LPS, enzyme-linked immunoassay",significant concentration-dependent inhibition
same,LPS-induced TNF-α expression,"[10]; human macrophages, LPS, flow cytometry",Concentration-dependent effects
"O=C(N[C@@H]1CNC1=O)OCCCCC1CCCCC1 [Compound 7, 4-Cyclohexylbutyl-N-[(R)-2-oxoazetidin-3-yl]carbamate]",covalent adduct with N-terminal cysteine (Cys131) of NAAA,r-NAAA,only negligible amounts of the adduct
same,carrageenan-induced TNF-α levels in pleural exudate,"[9]; mice, 30 mg kg^−1, oral",no such effect
same,carrageenan-induced lung tissue myeloperoxidase (MPO) activity,"[9]; mice, 30 mg kg^−1, oral",no such effect
"C[C@@H]1C[C@H]2[C@@H]3CCC4=CC(=O)C=C[C@]4(C)[C@@]3(F)[C@@H](O)C[C@]2(C)[C@@]1(O)C(=O)CO [dexamethasone, reference compound]","carrageenan-induced lung MPO activity, effect relative to maximal effect of 6","[9]; mice, 0.5 mg kg^−1, intraperitoneal",comparable
